Test results from patent publication US20240374590A1, “COMPOSITIONS AND METHODS FOR TREATING CANCER” (A2A PHARMACEUTICALS, INC., priority 2021, published 2024).

Legend:
[1] = test system: RKO xenograft; experiment: RKO colon cancer xenograft tumor growth in nude mice; format: in vivo, mouse; conditions: female athymic nude mice
Protocol: Six-to-eight-week-old female athymic nude mice were housed with a temperature-controlled and 12-hour light/12-hour dark cycle environment. For in vivo colon cancer tumor growth, 1×10^6 RKO cells were prepared in 100 μL of DMEM and injected into right flank of female nude mice. Mouse weight and tumor volume were measured twice a week. Tumor volumes were calculated as length×width^2×0.5. Once the tumor volume had reached about 100 mm^3, xenografts were randomized into groups (5 mice per group). Animals were treated with vehicle and Compound 129b. The formulation for vehicle and Compound 129b was 50% PEG400 and 20% Cremophor RH40 final (50% of 40% Cremophor) in Acetate buffer, PH=4. The mouse were sacrificed after 4 weeks or if the tumors reached a predefined tumor volume cut-off of 2500 mm^3. […] For instance, at the highest does, a TGI of at least 80% was observed (FIG. 1). PGP-71

[2] = test system: JIMT-1 human breast cancer cell line; experiment: Cell viability assay (SRB) in JIMT-1; format: cell-based; conditions: 72 hours after treatment, read-out: JIMT1 IC50
How it was run: (§1)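 JIMT-1 (3×10^3 cells/well) and HCT-116 (4×10^3 cells/well) cells were seeded and treated with inhibitors at several concentrations 24 h later. Viability was read by sulforhodamine B staining 72 h after treatment. JIMT-1 was grown in DMEM and HCT-116 in McCoy's 5A, both with FBS.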

[3] = test system: HCT-116 human colon carcinoma cell line; experiment: Cell viability assay (SRB) in HCT-116; format: cell-based; conditions: 72 hours after treatment, read-out: HCT116 IC50
How it was run: as §1

[4] = test system: CT-26 xenografts; experiment: CT-26 mouse colon xenograft model; format: in vivo; conditions: CT-26 xenograft, female Balb/c mice; 15, 25, 50 mpk QD, 5 mpk IV BIW, 5 mpk IP QD
Protocol: Compound 129b was also tested in CT-26 mouse colon xenograft models. For CT-26 xenografts 5×10^5 CT-26 cells in 100 μL was injected in the right flank of six-to-eight-week-old female Balb/c mice. When the tumor volume reached mean of ˜100 mm^3, mice were randomized in a group of 5 and treatment was initiated vehicle, 15 mpk QD, 25 mpk QD, 50 mpk QD, 5 mpk IV BIW, and 5 mpk IP QD of Compound 129b.

SMILES	IC50 [2]	IC50 [3]	tumor growth inhibition (in words) ([1]; 100 mg/kg PO QD/BID/TID)	TGI ([1]; highest dose (100 mg/kg PO TID, 28 days))	tumor growth inhibition or regression (in words) [4]
CC1COCC(C)N1c1ncc(F)c(Nc2cc(-c3ccc(OC(F)F)cc3)n[nH]2)n1 (stereo not shown) [Compound 286, N-(3-(4-(difluoromethoxy)phenyl)-1H-pyrazol-5-yl)-2-(3,5-dimethylmorpholino)-5-fluoropyrimidin-4-amine]	1680 nM	5220 nM	–	–	–
C[C@@H]1CN(c2ncc(Cl)c(Nc3cc(-c4ccc(OC(F)F)cc4)n[nH]3)n2)C[C@H](C)O1 [Compound 288, 5-chloro-N-(3-(4-(difluoromethoxy)phenyl)-1H-pyrazol-5-yl)-2-((2R,6S)-2,6-dimethylmorpholino)pyrimidin-4-amine]	443 nM	456 nM	–	–	–
CC1COCCN1c1ncc(F)c(Nc2cc(-c3ccc(OC(F)F)cc3)n[nH]2)n1 (stereo not shown) [Compound 291, N-(3-(4-(difluoromethoxy)phenyl)-1H-pyrazol-5-yl)-5-fluoro-2-(3-methylmorpholino)pyrimidin-4-amine]	777 nM	1710 nM	–	–	–
C[C@@H]1CN(c2ncc(F)c(Nc3cc(-c4ccc(OC(F)F)cc4)n[nH]3)n2)C[C@@H](C)O1 [Compound 292, N-(3-(4-(difluoromethoxy)phenyl)-1H-pyrazol-5-yl)-2-((2R,6R)-2,6-dimethylmorpholino)-5-fluoropyrimidin-4-amine]	659 nM	996 nM	–	–	–
C[C@H]1COCCN1c1ncc(F)c(Nc2cc(-c3ccc(OC(F)F)cc3)n[nH]2)n1 [Compound 294, (S)-N-(3-(4-(difluoromethoxy)phenyl)-1H-pyrazol-5-yl)-5-fluoro-2-(3-methylmorpholino)pyrimidin-4-amine]	636 nM	1140 nM	–	–	–
C[C@@H]1COCCN1c1ncc(F)c(Nc2cc(-c3ccc(OC(F)F)cc3)n[nH]2)n1 [Compound 295, (R)-N-(3-(4-(difluoromethoxy)phenyl)-1H-pyrazol-5-yl)-5-fluoro-2-(3-methylmorpholino)pyrimidin-4-amine]	≥ 10000 nM	7510 nM	–	–	–
C[C@@H]1CN(c2ncnc(Nc3cc(-c4ccc(OC(F)F)cc4)n[nH]3)n2)C[C@H](C)O1 [Compound 310, N-(3-(4-(difluoromethoxy)phenyl)-1H-pyrazol-5-yl)-4-((2R,6S)-2,6-dimethylmorpholino)-1,3,5-triazin-2-amine]	2350 nM	2960 nM	–	–	–
COc1ccc(-c2cc(Nc3ccnc(C4CCOCC4)n3)[nH]n2)c(F)c1 [Compound 318, N-(3-(2-fluoro-4-methoxyphenyl)-1H-pyrazol-5-yl)-2-(tetrahydro-2H-pyran-4-yl)pyrimidin-4-amine]	319 nM	293 nM	–	–	–

These reach a lower IC50 [2]. Values come first.

IC50 [2]	IC50 [3]	SMILES	tumor growth inhibition (in words) ([1]; 100 mg/kg PO QD/BID/TID)	TGI ([1]; highest dose (100 mg/kg PO TID, 28 days))	tumor growth inhibition or regression (in words) [4]
3 nM	34 nM	COc1ccc(-c2cc(Nc3ccnc(N4C[C@@H](C)O[C@@H](C)C4)n3)[nH]n2)c(F)c1 [Compound 129b, 2-((2R,6S)-2,6-dimethylmorpholino)-N-(3-(2-fluoro-4-methoxyphenyl)-1H-pyrazol-5-yl)pyrimidin-4-amine]	strong tumor growth inhibition	at least 80%	Strong and statistically significant tumor growth inhibition or regression
49 nM	91 nM	C[C@@H]1CN(c2ncc(F)c(Nc3cc(-c4ccc(OC(F)F)cc4)n[nH]3)n2)C[C@H](C)O1 [Compound 287, N-(3-(4-(difluoromethoxy)phenyl)-1H-pyrazol-5-yl)-2-((2R,6S)-2,6-dimethylmorpholino)-5-fluoropyrimidin-4-amine]	–	–	–
180 nM	371 nM	Fc1cnc(N2CCC2)nc1Nc1cc(-c2ccc(OC(F)F)cc2)n[nH]1 [Compound 289, 2-(azetidin-1-yl)-N-(3-(4-(difluoromethoxy)phenyl)-1H-pyrazol-5-yl)-5-fluoropyrimidin-4-amine]	–	–	–
278 nM	337 nM	CC1CCCN1c1ncc(F)c(Nc2cc(-c3ccc(OC(F)F)cc3)n[nH]2)n1 (stereo not shown) [Compound 290, N-(3-(4-(difluoromethoxy)phenyl)-1H-pyrazol-5-yl)-5-fluoro-2-(2-methylpyrrolidin-1-yl)pyrimidin-4-amine]	–	–	–
255 nM	332 nM	C[C@H]1CN(c2ncc(F)c(Nc3cc(-c4ccc(OC(F)F)cc4)n[nH]3)n2)C[C@H](C)O1 [Compound 293, N-(3-(4-(difluoromethoxy)phenyl)-1H-pyrazol-5-yl)-2-((2S,6S)-2,6-dimethylmorpholino)-5-fluoropyrimidin-4-amine]	–	–	–
12 nM	24 nM	COc1ccc(-c2cc(Nc3ccnc(C4=CCOCC4)n3)[nH]n2)c(F)c1 [Compound 317, 2-(3,6-dihydro-2H-pyran-4-yl)-N-(3-(2-fluoro-4-methoxyphenyl)-1H-pyrazol-5-yl)pyrimidin-4-amine]	–	–	–
